How the values were obtained:
[1] = biological target: T1, DDB1- and CUL4-associated factor 1 (Homo sapiens, UniProt Q9Y4B6); experiment: Binding affinity to Avi-tagged DCAF1 (1073 to 1399 residues) (unknown origin) expressed in baculovirus infected in Sf9 insect cells by SPR analysis
[2] = biological target: T1, DDB1- and CUL4-associated factor 1; experiment: Binding affinity to Avi-tagged DCAF1 (1039 to 1401 residues) (unknown origin) expressed in baculovirus infected in Sf9 insect cells by NMR analysis

T1 sequence (Q9Y4B6 whole entry, the tested form may be a part): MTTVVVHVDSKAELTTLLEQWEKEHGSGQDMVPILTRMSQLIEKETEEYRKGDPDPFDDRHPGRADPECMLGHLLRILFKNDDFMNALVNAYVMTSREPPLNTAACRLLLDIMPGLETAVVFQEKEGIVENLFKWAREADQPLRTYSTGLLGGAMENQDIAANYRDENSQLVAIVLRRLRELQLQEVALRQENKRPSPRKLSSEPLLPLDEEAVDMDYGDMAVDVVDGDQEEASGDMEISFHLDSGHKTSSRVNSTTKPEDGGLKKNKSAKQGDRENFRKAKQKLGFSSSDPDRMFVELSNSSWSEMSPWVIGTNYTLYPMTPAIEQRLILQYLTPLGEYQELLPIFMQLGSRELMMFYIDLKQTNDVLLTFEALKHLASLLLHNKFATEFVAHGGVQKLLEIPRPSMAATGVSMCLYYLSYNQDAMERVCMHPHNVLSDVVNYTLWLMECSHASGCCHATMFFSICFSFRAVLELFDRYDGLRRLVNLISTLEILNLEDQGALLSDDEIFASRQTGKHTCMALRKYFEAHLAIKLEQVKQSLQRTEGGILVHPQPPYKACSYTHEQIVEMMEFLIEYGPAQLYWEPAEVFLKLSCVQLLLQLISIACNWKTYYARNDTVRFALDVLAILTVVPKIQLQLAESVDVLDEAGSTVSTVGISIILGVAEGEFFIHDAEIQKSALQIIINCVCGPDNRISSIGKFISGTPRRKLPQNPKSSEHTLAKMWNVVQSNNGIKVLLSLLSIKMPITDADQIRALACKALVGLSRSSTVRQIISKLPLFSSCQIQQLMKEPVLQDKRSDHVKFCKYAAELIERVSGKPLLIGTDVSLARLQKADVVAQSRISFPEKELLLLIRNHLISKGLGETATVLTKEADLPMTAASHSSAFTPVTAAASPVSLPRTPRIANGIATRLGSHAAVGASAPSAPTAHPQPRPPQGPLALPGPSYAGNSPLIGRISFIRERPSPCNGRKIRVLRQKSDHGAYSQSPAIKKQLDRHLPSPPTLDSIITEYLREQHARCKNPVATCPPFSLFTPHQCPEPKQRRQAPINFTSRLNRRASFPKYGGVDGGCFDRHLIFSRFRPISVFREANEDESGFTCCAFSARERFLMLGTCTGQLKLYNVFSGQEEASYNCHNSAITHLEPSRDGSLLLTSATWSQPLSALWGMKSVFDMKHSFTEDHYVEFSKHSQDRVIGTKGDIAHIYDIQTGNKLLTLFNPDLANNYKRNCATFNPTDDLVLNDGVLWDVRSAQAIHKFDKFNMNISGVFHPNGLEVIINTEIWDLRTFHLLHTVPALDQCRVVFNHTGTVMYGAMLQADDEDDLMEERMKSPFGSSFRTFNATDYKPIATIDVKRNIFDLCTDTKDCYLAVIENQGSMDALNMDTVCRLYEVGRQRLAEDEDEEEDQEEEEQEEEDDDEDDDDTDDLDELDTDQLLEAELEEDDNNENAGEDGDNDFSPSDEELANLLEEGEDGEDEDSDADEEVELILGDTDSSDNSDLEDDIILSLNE

Row | Compound | Kd [1] | Kd [2]
1 | Clc1ccc(C2(C3=Cc4ccccc4C4=NCCN34)CC2)cc1 | 41 µM | 13 µM
2 | COc1ccc(C2(C3=Cc4cc(N5CCN(C)CC5)ccc4C4=NCCN34)CC2)cc1 | 11.4 µM | 
3 | COc1ccc(C2(c3nc(NCCN)c4ccccc4n3)CC2)cc1 | 26.7 µM | 
4 | COc1ccc(C2(c3nc(NCCN)c4ccc(N5CCN(C(C)=O)CC5)cc4n3)CC2)cc1 | 1.5 µM | 
5 | CN1CCN(c2ccc3c(NCCN)nc(C4(c5ccc(Cl)cc5)CCCC4)nc3c2)CC1 | 0.098 µM | 
6 | CN1CCN(c2ccc3c(NCCN)nc(C4(c5ccc(Cl)cc5)CCCCC4)nc3c2)CC1 | 0.083 µM | 
7 | CC(C)(Cc1ccccc1)C1=Cc2ccccc2C2=NCCN12 |  | 40 µM

Next, values leading:

Row | Kd [1] | Kd [2] | Compound
8 | > 100 µM | > 500 µM | NC1=NCC(c2cccc(Oc3ccc(Cl)cc3)c2)C1 (stereo not drawn)
9 | > 50 µM |  | COc1ccc(C2(C3=Cc4ccccc4C4=NCCN34)CC2)cc1
10 | 5.6 µM |  | COc1ccc(C2(c3nc(NCCN)c4ccc(N5CCN(C)CC5)cc4n3)CC2)cc1
11 | 0.047 µM |  | CC(=O)N1CCN(c2ccc3c(NCCN)nc(C4(c5ccc(Cl)cc5)CCCC4)nc3c2)CC1
